Patent US20260176279A1, “DUAL RAF AND TUBULIN INHIBITORS AND METHODS OF USE THEREOF” (Deciphera Pharmaceuticals, LLC, priority 2023, published 2026)
Read-outs that look alike come from different tables or passages of the source.

Tests used:
B-Raf kinase = target: T1, B-Raf kinase (Homo sapiens, UniProt P15056); assay: Biochemical Assay for B-Raf (coupled pyruvate kinase/lactate dehydrogenase assay)
T1 construct: GST (N); purchased Sigma

C-Raf kinase = target: T2, C-Raf kinase (Homo sapiens, UniProt P04049, Y340D/Y341D); assay: Biochemical Assay for C-Raf (coupled pyruvate kinase/lactate dehydrogenase assay)
T2 construct: C-Raf residues 306-end; Y340D, Y341D with N-; GST (N); purchased Eurofins
T2 sequence (P04049 307-648 Y340D/Y341D): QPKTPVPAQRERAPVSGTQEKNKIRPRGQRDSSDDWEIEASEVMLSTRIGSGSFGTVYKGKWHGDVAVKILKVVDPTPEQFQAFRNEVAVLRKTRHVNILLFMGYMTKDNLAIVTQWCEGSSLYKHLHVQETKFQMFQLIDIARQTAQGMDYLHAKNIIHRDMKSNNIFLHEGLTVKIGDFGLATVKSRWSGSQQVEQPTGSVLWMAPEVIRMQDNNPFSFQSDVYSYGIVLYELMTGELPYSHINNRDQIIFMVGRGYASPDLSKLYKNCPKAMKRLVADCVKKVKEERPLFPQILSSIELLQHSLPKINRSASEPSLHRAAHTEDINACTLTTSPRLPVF

MiaPaca-2 cells = assay: MiaPaca-2 Cell Proliferation Assay; type: cell-based; conditions: Homo sapiens, MIA PaCa-2
Method: MiaPaca-2 cells (catalog #CRL-1420) are obtained from the American Type Culture Collect (ATTC, Manassas, VA). Briefly, cells were grown in DMEM supplemented with 10% characterized fetal bovine serum (Invitrogen, Carlsbad, CA), 2.5% New Zealand sourced horse serum and 1% Penicillin/Streptomycin/L-Glutamine at 37° C., 5% CO2, and 95% humidity. Cells are expanded until reaching 70-95% confluency at which point they are sub-cultured or harvested for assay use. For assays completed in 96-well plates, a serial dilution of test compound is dispensed into a 96-well black clear bottom plate in triplicate. Three thousand cells are added per well in 200 μL complete growth medium in the 96-well plate. Plates are incubated for 67 to 72 h at 37° C., 5% CO2, and 95% humidity. At the end of the incubation, 40 μL of a […] solution of resazurin (Sigma, St. Louis, MO) in PBS is added to each well of the plate and plates are incubated for an additional 5 to 6 hours at 37° C., 5% CO2, and 95% humidity. For 384-well assays, a threefold, 8-point serial dilution of compound was spotted column wise into a 384 well black, clear bottom, tissue culture treated plate using the Beckman Coulter Echo 650. Likewise, a threefold, 8-point serial dilution of cobimetinib was spotted row wise into the 384 well black, clear bottom plate containing compound. DMSO concentration was constant across all wells at 0.4%. Seven hundred fifty cells are added per well in 50 μL complete growth medium in each 384-well plate. Plates are incubated for 67 to 72 h at 37° C., 5% CO2, and 95% humidity. At the end of the incubation, 10 μL of a 440 μM solution of resazurin (Sigma, St. Louis, MO) in PBS is added to each well of the plate and plates are incubated for an additional 4 to 6 h at 37° C., 5% CO2, and 95% humidity. Plates are read on a Synergy2 or equivalent reader (Biotek, Winooski VT) using an excitation of 540 nm and an emission of 600 nm. Data is analyzed using Prism software (Graphpad, San Diego, CA) to calculate IC50 values.

HCT-116 cells = assay: HCT-116 Cell Proliferation Assay; type: cell-based; conditions: Homo sapiens
Method: HCT-116 cells (catalog #CCL-247) are obtained from the American Type Culture Collect (ATCC, Manassas, VA). Briefly, cells are grown in McCoy's 5A supplemented with 10% characterized fetal bovine serum (Invitrogen, Carlsbad, CA) and 1% Penicillin/Streptomycin/L-Glutamine at 37° C., 5% CO2, and 95% humidity. Cells are expanded until reaching 70-95% confluency at which point they are sub-cultured or harvested for assay use. A serial dilution of test compound is dispensed into a 384-well black clear bottom plate in triplicate. 375 cells are added per well in 50 μL complete growth medium in the 384-well plate. Plates are incubated for 67 to 72 h at 37° C., 5% CO2, and 95% humidity. At the end of the incubation, 40 μL of a […] solution of resazurin (Sigma, St. Louis, MO) in PBS is added to each well of the plate and plates are incubated for an additional 4 to 5 hours at 37° C., 5% CO2, and 95% humidity. Plates are read on a Synergy2 or equivalent reader (Biotek, Winooski, VT) using an excitation of 540 nm and an emission of 600 nm. Data is analyzed using Prism software (Graphpad, San Diego, CA) to calculate IC50 values.

HPAF-II cells = assay: HPAF-II Cell Proliferation Assay; type: cell-based; conditions: Homo sapiens
Method: HPAF-II cells (catalog #CRL-1997) are obtained from the American Type Culture Collect (ATCC, Manassas, VA). Briefly, cells are grown in Minimum Essential Media supplemented with 10% characterized fetal bovine serum (Invitrogen, Carlsbad, CA) and 1% Penicillin/Streptomycin/L-Glutamine at 37° C., 5% CO2, and 95% humidity. Cells are expanded until reaching 70-95% confluency at which point they are sub-cultured or harvested for assay use. A serial dilution of test compound is dispensed into a 384-well black clear bottom plate in triplicate. 750 cells are added per well in 50 μL complete growth medium in the 384-well plate. Plates are incubated for 115 to 120 h at 37° C., 5% CO2, and 95% humidity. At the end of the incubation, 40 μL of a […] solution of resazurin (Sigma, St. Louis, MO) in PBS is added to each well of the plate and plates are incubated for an additional 18 to 24 h at 37° C., 5% CO2, and 95% humidity. Plates are read on a Synergy2 or equivalent reader (Biotek, Winooski, VT) using an excitation of 540 nm and an emission of 600 nm. Data is analyzed using Prism software (Graphpad, San Diego, CA) to calculate IC50 values.

Pa16c cells = assay: Pa16c Cell Proliferation Assay; type: cell-based; conditions: Table 2, inhibition of cell proliferation
Method: Pa16c cells are obtained from Dr. Channing Der, University of North Carolina at Chapel Hill. Briefly, cells are grown in Dulbecco's Modified Eagle Medium supplemented with 10% characterized fetal bovine serum (Invitrogen, Carlsbad, CA) and 1% Penicillin/Streptomycin/L-Glutamine at 37° C., 5% CO2, and 95% humidity. Cells are expanded until reaching 70-95% confluency at which point they are sub-cultured or harvested for assay use. A serial dilution of test compound is dispensed into a 384-well black clear bottom plate in triplicate. 750 cells are added per well in 50 μL complete growth medium in the 384-well plate. Plates are incubated for 67 to 72 hours at 37° C., 5% CO2, and 95% humidity. At the end of the incubation, 40 μL of a […] solution of resazurin (Sigma, St. Louis, MO) in PBS is added to each well of the plate and plates are incubated for an additional 18 to 24 hours at 37° C., 5% CO2, and 95% humidity. Plates are read on a Synergy2 or equivalent reader (Biotek, Winooski, VT) using an excitation of 540 nm and an emission of 600 nm. Data is analyzed using Prism software (Graphpad, San Diego, CA) to calculate IC50 values.

tubulin = assay: Cellular Tubulin Polymerization Assay (HCT-116 cells); type: cell-based; conditions: read-out: Tubulin Cellular IC50
[1] = Table 1, inhibition of biochemical activity, read-out: BRAF
[2] = Table 1, inhibition of biochemical activity, read-out: CRAF
[3] = Table 2, inhibition of cell proliferation, read-out: MiaPaca-2
[4] = Table 3, read-out: MiaPaca-2 IC50
[5] = HCT-116, Table 3, read-out: HCT-116 IC50
[6] = Table 2, inhibition of cell proliferation, read-out: HCT-116
[7] = HPAF-II, Table 3, read-out: HPAF-II IC50
[8] = Table 2, inhibition of cell proliferation, read-out: HPAF-II
[9] = Table 4, read-out: MiaPaca-2 IC50
[10] = HCT-116, Table 4, read-out: HCT-116 IC50
[11] = HPAF-II, Table 4, read-out: HPAF-II IC50

T1 sequence (P15056 416-766): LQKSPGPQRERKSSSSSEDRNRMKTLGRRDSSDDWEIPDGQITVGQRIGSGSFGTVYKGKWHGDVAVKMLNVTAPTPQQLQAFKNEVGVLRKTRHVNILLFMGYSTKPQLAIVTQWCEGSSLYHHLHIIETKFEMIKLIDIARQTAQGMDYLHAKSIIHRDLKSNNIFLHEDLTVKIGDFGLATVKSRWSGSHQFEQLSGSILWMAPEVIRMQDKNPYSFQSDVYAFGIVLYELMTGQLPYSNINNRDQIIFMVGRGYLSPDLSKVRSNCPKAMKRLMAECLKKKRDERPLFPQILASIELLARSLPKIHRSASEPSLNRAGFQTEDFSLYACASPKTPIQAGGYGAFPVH

| SMILES | IC50 (B-Raf kinase; [1]) [nM] | IC50 (B-Raf kinase; Table 3, read-out: BRAF IC50) [nM] | IC50 (C-Raf kinase; [2]) [nM] | IC50 (C-Raf kinase; Table 3, read-out: CRAF IC50) [nM] | IC50 (MiaPaca-2 cells; [3]) [nM] | IC50 (MiaPaca-2 cells; [4]) [nM] | IC50 (HCT-116 cells; [5]) [nM] | IC50 (HCT-116 cells; [6]) [nM] | IC50 (HPAF-II cells; [7]) [nM] | IC50 (HPAF-II cells; [8]) [nM] | IC50 (Pa16c cells) [nM] | IC50 (tubulin; Table 3, HCT-116 cells) [nM] | IC50 (B-Raf kinase; Table 4, read-out: BRAF IC50) [nM] | IC50 (C-Raf kinase; Table 4, read-out: CRAF IC50) [nM] | IC50 (MiaPaca-2 cells; [9]) [nM] | IC50 (HCT-116 cells; [10]) [nM] | IC50 (HPAF-II cells; [11]) [nM] | IC50 (tubulin; Table 4, HCT-116 cells) [nM] |
| --- | --- | --- | --- | --- | --- | --- | --- | --- | --- | --- | --- | --- | --- | --- | --- | --- | --- | --- |
| CNc1cc(-c2cc(-c3cc(NC(=O)Nc4ccc(C(F)(F)F)nc4)ccc3C)cc(OCCO)n2)ccn1 [Example 17] | 100 to 500 | 100 to 500 | < 100 | 100 to 500 | < 100 | < 100 | < 100 | < 100 | 500 to 1000 | 500 to 1000 | < 100 | – | – | – | – | – | – | – |
| Cc1ccc(NC(=O)Nc2ccc(C(F)(F)F)nc2)cc1-c1ccnc(-c2ccnc(NC(=O)CN(C)C)c2)c1 [Example 18] | < 100 | < 100 | < 100 | < 100 | < 100 | < 100 | 100 to 500 | – | 100 to 500 | – | – | 100 to 500 | – | – | – | – | – | – |
| CNc1cc(-c2cc(-c3cc(NC(=O)Nc4ccc(C(F)(F)F)nc4)ccc3C)ccn2)ccn1 [Example 19] | 100 to 500 | < 100 | < 100 | < 100 | 100 to 500 | 100 to 500 | 100 to 500 | 100 to 500 | 100 to 500 | 100 to 500 | – | < 100 | – | – | – | – | – | – |
| CNC(=O)c1cc(-c2cc(-c3cc(NC(=O)Nc4ccc(C(F)(F)F)nc4)ccc3C)ccn2)ccn1 [Example 20] | 100 to 500 | 100 to 500 | < 100 | < 100 | < 100 | < 100 | < 100 | < 100 | 100 to 500 | 100 to 500 | – | < 100 | – | – | – | – | – | – |
| Cc1ccc(NC(=O)Nc2cc(C(F)(F)F)cnn2)cc1-c1ccnc(-c2ccnc(NC(=O)C3CC3)c2)c1 [Example 22, N-(4-(2-methyl-5-(3-(5-(trifluoromethyl)pyridazin-3-yl)ureido)phenyl)-[2,4′-bipyridin]-2′-yl)cyclopropanecarboxamide] | < 100 | – | < 100 | – | 500 to 1000 | – | – | 500 to 1000 | – | 1000 to 10000 | 1000 to 10000 | – | – | – | – | – | – | – |
| Cc1ccc(NC(=O)Nc2ccc(C(F)(F)F)nc2)cc1-c1ccnc(N2CCOCC2)c1 [Example 36] | 100 to 500 | 100 to 500 | < 100 | 100 to 500 | < 100 | < 100 | < 100 | < 100 | < 100 | < 100 | – | < 100 | – | – | – | – | – | – |
| Cc1cc(F)c(NC(=O)NCCC(C)(C)C)cc1-c1cc(OCCO)nc(N2CCOCC2)c1 [reference compound] | – | – | – | – | – | – | – | – | – | – | – | – | < 100 | < 100 | 1000 to 10000 | 1000 to 10000 | 1000 to 10000 | 1000 to 10000 |
| CC(=O)Nc1cc(-c2cc(-c3cc(NC(=O)NCCC4(C)CC4)c(F)cc3C)ccn2)ccn1 [reference compound] | – | – | – | – | – | – | – | – | – | – | – | – | < 100 | < 100 | 1000 to 10000 | 500 to 1000 | 500 to 1000 | 1000 to 10000 |
| Cc1ccc(NC(=O)Nc2cccc(C(F)(F)F)c2)cc1-c1cc(OCCO)nc(N2CCOCC2)c1 [reference compound] | – | – | – | – | – | – | – | – | – | – | – | – | – | – | – | 100 to 500 | – | 1000 to 10000 |
| CC(=O)Nc1cc(-c2cc(-c3cc(NC(=O)Nc4ccc(C(F)(F)F)cc4)cnc3C)ccn2)ccn1 [reference compound] | – | – | – | – | – | – | – | – | – | – | – | – | – | – | – | 1000 to 10000 | 1000 to 10000 | 1000 to 10000 |
| CNC(=O)c1cc(-c2cc(-c3cc(NC(=O)Nc4ccnc(C(C)(C)C#N)c4)ccc3C)ccn2)ccn1 [reference compound] | – | – | – | – | – | – | – | – | – | – | – | – | – | – | 500 to 1000 | 1000 to 10000 | – | 1000 to 10000 |
